Reference: a melting point compilation (Tetko et al.; mined from patent text by program, amines drawn as free bases though some values may be those of a salt)
Non-standard residues stand in square brackets, D forms with d. Residues, ends and D or L forms follow the SMILES beside them. ξ: configuration not given here. *: point of attachment. ξPhe(4-F) = NC(Cc1ccc(F)cc1)C(=O)O; Boc = CC(C)(C)OC(=O)*

SMILES | melting point
COc1cccc(S(=O)(=O)N(CC(N)=O)c2ccc(Cl)cc2Cc2ccccc2Cl)c1 | 65.7 °C
CCCCC[C@H](CC(=O)OC(C)(C)C)C(=O)N1C(=O)OC[C@@H]1C(C)C | 51 to 53 °C
O=C(O)C1=C(c2ccccc2)C(c2ccccc2)OC1=O (centres undefined) | 116 to 117 °C
O=C(NCCN1CCC(C(=O)c2ccc(F)cc2)CC1)c1cccnc1 | 118 °C
CC(=O)c1ccc(OCCOc2ccc3ccccc3c2)c(F)c1 | 171 to 173 °C
CN1C(=O)CSc2c(NCc3cccc(OCc4ccc5ccccc5n4)c3)cccc21 | 102 to 104 °C
CC(=O)NCCn1ccc2c1-c1cc(Cl)ccc1CC2 | 144 to 146 °C
CC(=O)N(C)c1cccc(-c2ccnc3c(C#N)cnn23)c1 | 195 to 197 °C
COC(=O)c1ccc(OC)c2oc(C)cc12 | 127 to 129 °C
O=C(NC(Cc1ccc(OCc2ccc(C(F)(F)F)cc2)cc1)C(=O)O)c1cn2ccc(-c3ccc(Cl)cc3)cc2n1 (centres undefined) | 263 °C
COc1cccc(OC)c1C(=O)NC(=O)Nc1ccc(-c2ccc(Cl)cc2)cn1 | 205 to 215 °C
CCCN(CCc1ccccc1)CCc1cccc2[nH]c(=O)[nH]c12 | 176 to 177 °C
COc1cc(OC)c2c(-c3ccc4c(c3)OCO4)c3c(cc2c1)C(=O)NC3 | 252 to 254 °C
c1cnc(C2CNCC(c3ncccn3)N2)nc1 (centres undefined) | 159 to 161 °C
COc1ccccc1CN=C1C2CCN(CC2)C1C(c1ccccc1)c1ccccc1 (centres undefined) | 154 to 158 °C
COc1cc(N)c(Cl)cc1C(=O)NCC1CCN(CCS(=O)(=O)CCc2ccccc2)CC1 | 161 to 162 °C
CCOC(=O)N(C(C)=O)c1ccc(OCc2nc3ccccc3s2)cc1 | 155 to 160 °C
CNC(=O)CC1c2cc(C#N)ccc2OC(C)(C)C1O (centres undefined) | 141 to 142 °C
CCCCCCCCCCOc1ccc(-c2ccc(OCc3ccccc3)c(F)c2)cc1F | 95.8 to 98.6 °C
O=C(O)c1ccc(OCCF)cc1 | 135 °C
COc1ccc2c(C=O)c(OCc3ccccc3)ccc2c1C(F)(F)F | 143 to 145 °C
CC(C)c1ccc(-c2nn(C)c(=O)c3ccccc23)cc1 | 107 to 108 °C
CC(=O)N(C)c1nc(CN2CCN(C(c3ccccc3)c3ccccc3)CC2)cs1 | 140 to 142 °C
COc1ccc(CC2SC(=O)NC2=O)c2c1N(Cc1ccc(N)cc1)C(=O)CC2 (centres undefined) | 174 to 175 °C
Clc1ccc(C(Cl)c2cc3cc(Cl)cc(Cl)c3o2)cc1 (centres undefined) | 72 to 74 °C
CCc1cn(C2CC(O)C(CCC(O)Cc3c(Cl)cccc3Cl)O2)c(=O)[nH]c1=O (mixture of isomers) | 185 to 186 °C
CCN(CC)c1ccc(-c2cn(-c3ccc(C4=C(C#N)C(=C(C#N)C#N)OC4(C)C)cc3)nn2)cc1 | 275 °C
CC1(Cc2ccccc2)CCNC1=O (centres undefined) | 89 to 90 °C
O=CC1=Cc2cc(OCc3ccc(C(F)(F)F)cc3)ccc2OC1 | 108 to 110 °C

Other lines, results leading:

melting point | SMILES
105 to 108 °C | O=C(NCc1cccnc1)c1cc2ccnc(N(Cc3ccccc3)Cc3ccccc3)c2[nH]1
136 °C | CCOC(=O)c1c(CCc2ccc(OC)cc2)nc2c(c1-c1ccc(C(=O)NCc3ccco3)cc1)C(=O)N1CCC[C@H]21
155 to 164 °C | COc1ccc(-n2nnc(-c3ccc(Cl)cc3Cl)c2N)cc1
180 to 189 °C | CSc1ccc2c(c1)C(O)(C1CCN(C)CC1)c1ccc(F)cc1S2 (centres undefined)
120 to 121 °C | Clc1ccc(NNc2ccc(Cl)cc2)cc1
221 to 222 °C | Clc1cc(Cl)c2nc3c4ccccc4c4ccccc4c3nc2c1
97 to 98 °C | CC(C)=CC(=O)N1CC(c2ccccc2)c2ccccc21 (centres undefined)
182 to 184 °C | O=C(O)CNC(=O)c1ncc(-c2cccc(F)c2)cc1O
168 to 170 °C | COC(=O)NC[C@H]1CN(c2cc(F)c(N3CCC(n4ncnn4)CC3)c(F)c2)C(=O)O1
182 to 184 °C | CC(c1ccncc1Cl)C(O)(Cn1cncn1)c1ccc(F)cc1F (centres undefined)
146 to 148 °C | Nc1cn(-c2cncnc2)nc1Cl
76 to 78 °C | O=S(=O)(c1ccccc1)n1c(Cc2cccc(-c3cc4ccccc4n3S(=O)(=O)c3ccccc3)c2)cc2ccccc21
135 to 136 °C | CC(=O)OCC(=O)C1(OC(C)=O)C(C)CC2C3CCC4=CC(=O)C=CC4(C)C3(F)C=CC21C (centres undefined)
270 to 272 °C | Cc1nn(C)c2cc(-c3nn(C(C)c4oc5ccccc5c(=O)c4-c4cccc(F)c4)c4ncnc(N)c34)ccc12 (centres undefined)
95 to 100 °C | CCN(CC)C1CCCCC1Oc1ccc(Cc2c(-c3ccc(OCCN4CCCC4)cc3)sc3cc(O)ccc23)cc1 (centres undefined)
179 °C | Cc1cccc(NC(=O)NCCC(=O)N(c2ccccc2)c2ccccc2)c1
109 to 114 °C | CCSc1nc(O)nn1C(C)C
133 to 135 °C | Cc1cccc(NC(=O)NC2N=C(C3CCCCC3)c3ccccc3N(CC(=O)N3CC4CCC(CC4)C3)C2=O)c1 (racemic)
105 °C | Nc1ccc2ccccc2c1-c1c(P(c2ccccc2)c2ccccc2)ccc2ccccc12
75 to 80 °C | CNC(=O)N1CCc2cc(OC)c(OC)c(O)c2C1Cc1cccc(OC)c1 (centres undefined)

melting point | SMILES
261 to 263 °C | Cc1cc(-c2nnc3c4ccccc4c(OCc4nncn4C)nn23)no1
192 to 195 °C | Cc1cc2nn(C)c(=O)n2nc1-c1cccc(N)c1
105 to 107 °C | COC(=O)c1cccc2c1Nc1c(I)cccc1C2
233 to 235 °C | CCOC(=O)CCn1c(=O)c(=O)[nH]c2cc(C(F)(F)F)c(-n3c(C)ccc3C)cc21
181 to 182 °C | CCNC(=O)C(Cc1ccc(F)cc1)NC(=O)CNC(=O)OC(C)(C)C (stereo not drawn) (Boc-Gly-[ξPhe(4-F)]-NHEt)
128 to 131 °C | COC1=C(OC)C(=O)C2=C(CC(CCCCOc3ccc(C(=O)N4CCOCC4)cc3)C2)C1=O
152 to 153 °C | CC1(C)[C@H](Cc2noc(C3CCCCC3)n2)CC[C@]1(C)NCC(=O)N1C[C@@H](F)C[C@H]1C#N
80 °C | CC(C)OC(=O)n1c(Cc2ccccc2)noc1=O
214 to 217 °C | Cc1cc2cc(CN3CCCC3)cnc2cc1NC(=O)c1ccc(-c2ccc(Cl)cc2)cc1
195 to 196 °C | COC(=O)c1cnc(N)c([N+](=O)[O-])c1
98 to 99 °C | CNc1c(OC)cc(C(=O)CS(C)(=O)=O)cc1OC
132 to 135 °C | COC=C(C(=O)OC)c1c(OC)ncnc1Oc1cccc(COc2ccccc2C#N)c1
140 to 143 °C | CC(=O)Oc1ccc(C2CC(=O)OC(=O)C2)cc1
254 to 255 °C | COc1c(-c2cc3c(s2)CC(O)C3)ccc2c(=O)c(C(=O)O)cn(C3CC3)c12 (centres undefined)
104 to 105 °C | CCn1nc(N)nc1NCCCOc1cccc(CN(C)C)c1
128 to 130 °C | CC(C)OC(=O)CCC(=O)c1ccc(Cl)c(S(N)(=O)=O)c1
285 to 287 °C | COc1ccc(-c2[nH]c3cn[nH]c(=O)c3c2Cl)cc1OC1CCC1
150 °C | Cc1c2c(nc3ccccc13)CCN(C(=O)Oc1ccccc1)CC2
54 to 57 °C | COC(=O)c1ccccc1-c1cc(-c2ccccn2)on1
205 to 207 °C | Cc1nccn1C(=O)Nc1ccccc1
